The values that follow come from patent publication US12268739B2, “Use of toll-like receptor 2 (TLR-2) agonist for modulating human immune response” (Children's Medical Center Corporation, priority 2018, dated 2025).

Test [1] concerns NF-κB reporter THP1 cells. Put plainly: NF-kB-induced luminescence HTS in THP1-Lucia cells (384-well). The test is classed as cell-based, human. Particulars: ranked at 3.3 μM; ~200,000 compounds tested. The text has this: HTS Overview: To identify immunomodulators/adjuvants that robustly activate human immune cells, ˜200,000 small molecules were screening in a THP1 cell-based assay. The chemical libraries screened included known bioactive and commercial libraries from various sources including commercial libraries such as ChemDiv, ChemBridge, and Asinex. All libraries were owned and provided by the Institute of Chemistry and Cell Biology (ICCB)—Longwood (Harvard Medical School). The project primary screen incorporated two distinct arms: a) a luciferase-based screen which corresponds to the relative activation of the NF-κB reporter; and b) a fluorescence-based screen, corresponding to the phenotypic adherence, a distinct marker of cell activation, of the human monocytic THP-1 cell lines. Described herein are small molecules identified in the screen that induce NF-kB activity based on a luciferase-based THP-1 cell screen.
(§1) THP-1 Cell Line and Culture Conditions. The THP1-Lucia™ cell line was obtained from Invivogen (San Diego, CA). THP1-Lucia cells, which are human monocytic cells derived from the blood of a child with leukemia, contain an NF-kB-inducible Luc reporter construct. This allows NF-kB activation to be measured by quantifying the luminescence from the secreted luciferase enzyme. THP1-Lucia cells were cultured in RPMI 1640 supplemented with 10% non-heat inactivated fetal bovine serum (FBS), 10 mM HEPES, 1.0 mM sodium pyruvate, 50 ug/ml Pen-Strep, and 100 ug/mL Normocin™. Once cultured, the cells were stored in a 37° C. incubator with 5% CO2 and a humidified atmosphere. Cells were passaged every 2-3 days and not allowed to exceed a concentration of 2.0×10^6 cells/ml media.
NF-kB-induced Luminescence Assay. THP1-Lucia cells between passage 15 and 18 and suspended in culture medium were dispensed into 384-well black clear-bottom plates (Corning 3712) at 30,000 cells/30 μl/well using a Combi liquid dispenser. To allow comparison to a benchmark small molecule with known immune stimulating activity, cells at the same concentration were stimulated with 50 μM R848, a TLR7/8 agonist, in 0.3% DMSO and added to every other well of column 24, which was left empty of cells, by multichannel pipette at the same volume. Five μl of 700 nM Phorbol myristate acetate (PMA) in THP1 culture media and 2.3% DMSO, a known peripheral blood cell mitogen, was added to every other well of column 23 by multichannel pipette (final concentration in well: 100 nM in 0.3% DMSO). Five μl of THP1 culture media with 2.3% DMSO was added to the remaining wells of column 23 by multichannel pipette (final concentration 0.3% DMSO). One hundred nl aliquots of library compounds diluted in 100% DMSO were transferred from their original 384-well plates to the assay plates using a Seiko pin transfer machine. Each library plate was pinned in duplicate, yielding two assay plates with identical conditions for comparison. Plates were then incubated for 24 hours at 37 C with 5% CO2 in humid conditions. Following incubation, 10 μL of supernatant was removed from each well and transferred to a white plate (Corning 3570) using a Vprep liquid transfer machine. 10 μL of recombinant Lucia protein (Invivogen) diluted 1:2000 in THP1 culture media was added to empty well 24P. Using a Combi liquid dispenser, 50 μL/well of Quanti-Luc substrate (Invivogen) diluted 1:3 in sterile water was added to the assay plate. Immediately after adding the substrate, the luminescence was read using a PerkinElmer Envision plate reader.

In another test the test system is human adult PBMCs. The test can be described thus: Cytokine production by stimulated human adult PBMCs (ELISA / multiplex). The test is classed as cell-based. The conditions noted are these: human adult PBMCs, 24 hours, compounds at 100 µM (FIG. 7), ELISA, median. The method, then: ELISAs and Multiplex-Analyte Assays. Supernatants derived from human PBMCs stimulations were assayed by ELISA for TNF and IL-6 (ThermoFisher Scientific; Waltham, MA, USA). Cytokine and chemokine expression profiles (e.g., IFNγ, IL-9, IL-10, IL-12 (p70), IL-13, IL-1β, IL-23, IL-27, IL-28A, IL-33, IL-6, MIP-3α/CCL20, and TNF) in cell culture supernatants were measured using a customized Milliplex® Human Th17 Magnetic Bead Panel according to the manufacturer's instructions (Millipore, Chicago, IL, USA). Assays were read and analyzed on the Luminex® 100/200TM System and xPOTENT® software (Luminex, Austin, TX). A minimum threshold was set at the minimum detectable concentration for each individual assay, defined as three standard deviations above the mean background.
PBMCs were isolated from blood using a Ficoll density gradient. PBMCs either used fresh or were stored at 5×10^7 cells per vial in 1 mL RPMI containing 20% autologous plasma and 10% DMSO at −80° C. until use. […] PBMCs isolated from human adult donors or THP1-NF-κB cells were resuspended at a concentration of 10^5 cells/200 μl of RPMI supplemented with 10% of platelet-poor plasma or THP1 culture medium, respectively. […] After 24 hours of incubation (37° C., 5% CO2), plates were spun down (500×g, room temperature, 5 minutes) and supernatants were harvested for further analysis.

A further test has as its system THP1-NF-κB cells. The test can be described thus: THP1-NF-κB cell stimulation for 24 hours, secreted luciferase luminescence. It counts as cell-based, human. Particulars: NF-κB-dependent luminescence, 24 hours; for THP1 cells (relative luminescence units, N = 4) Comp at 25 uM: compound at 25 uM; for THP1 cells (relative luminescence units, N = 4) Comp at 100 uM: compound at 100 uM. The method, then:
as §1
PBMCs were isolated from blood using a Ficoll density gradient. PBMCs either used fresh or were stored at 5×10^7 cells per vial in 1 mL RPMI containing 20% autologous plasma and 10% DMSO at −80° C. until use. Stimulation plates were prepared by transferring 0.66 μl of DMSO-dissolved compounds (30 or 7.5 mM) to each well of a round bottom 96-well plate. PBMCs isolated from human adult donors or THP1-NF-κB cells were resuspended at a concentration of 10^5 cells/200 μl of RPMI supplemented with 10% of platelet-poor plasma or THP1 culture medium, respectively. 200 μl of the cell suspension were transferred to each well resulting in a final compound concentration of 100 or 25 μM. After 24 hours of incubation (37° C., 5% CO2), plates were spun down (500×g, room temperature, 5 minutes) and supernatants were harvested for further analysis.

Take `COC(=O)c1c(NC(=O)CN2CCN(C(=O)c3ccco3)CC2)sc2c1CCC2` [Compound 003]: in test [1], the “Efficacy in activating NF-κB in THP1 cells (screening hits)” value is “most effective”.

With `CCOC(=O)c1c(NC(=O)CN2CCC3(CC2)OCCO3)sc(C)c1C` [Compound 005], the “Efficacy in activating NF-κB in THP1 cells (screening hits)” value in test [1] is given as “most effective”.

Regarding `CNC(=O)c1c(NC(=O)c2ccc(Cl)cc2)sc2c1CCC2` [Compound 80.5], in the test on human adult PBMCs, the “Adult PBMCs (median ng/ml) IL-6 (N = 7)” value is 0.008 ng/mL and the “Adult PBMCs (median ng/ml) TNFa (N = 13)” value amounted to 0.008 ng/mL. In addition, in the test on THP1-NF-κB cells, the “THP1 cells (relative luminescence units, N = 4) Comp at 25 uM” value was 436.5 relative luminescence units and the “THP1 cells (relative luminescence units, N = 4) Comp at 100 uM” value was 777 relative luminescence units.

For the compound `CCN(CC)S(=O)(=O)c1ccc(C(=O)Nc2sc3c(c2C(=O)NC)CCC3)cc1` [Compound 80.6], in the test on THP1-NF-κB cells, the “THP1 cells (relative luminescence units, N = 4) Comp at 25 uM” value is given as 2505 relative luminescence units and the “THP1 cells (relative luminescence units, N = 4) Comp at 100 uM” value is recorded as 2816 relative luminescence units.

Regarding `CNC(=O)c1c(NC(=O)c2ccc(OC)cc2)sc2c1CCC2` [Compound 80.8], in the test on human adult PBMCs, the “Adult PBMCs (median ng/ml) IL-6 (N = 7)” value was found to be 0.008 ng/mL and the “Adult PBMCs (median ng/ml) TNFa (N = 13)” value was found to be 0.008 ng/mL. Also, in the test on THP1-NF-κB cells, the “THP1 cells (relative luminescence units, N = 4) Comp at 25 uM” value is 258.5 relative luminescence units and the “THP1 cells (relative luminescence units, N = 4) Comp at 100 uM” value was 2552 relative luminescence units.

With `CNC(=O)c1c(NC(=O)c2ccc(C#N)cc2)sc2c1CCC2` [Compound 80.11], in the test with human adult PBMCs, the “Adult PBMCs (median ng/ml) IL-6 (N = 7)” value was found to be 0.0225 ng/mL and the “Adult PBMCs (median ng/ml) TNFa (N = 13)” value came out at 0.008 ng/mL. In the test with THP1-NF-κB cells, the “THP1 cells (relative luminescence units, N = 4) Comp at 25 uM” value is listed as 1108 relative luminescence units and the “THP1 cells (relative luminescence units, N = 4) Comp at 100 uM” value was 2420 relative luminescence units.

With `CNC(=O)c1c(NC(=O)c2ccc(S(=O)(=O)N(C)C)cc2)sc2c1CCCCC2` [Compound 80.13], in the test on human adult PBMCs, the “Adult PBMCs (median ng/ml) IL-6 (N = 7)” value amounted to 0.008 ng/mL and the “Adult PBMCs (median ng/ml) TNFa (N = 13)” value came out at 0.008 ng/mL. For the same compound, in the test with THP1-NF-κB cells, the “THP1 cells (relative luminescence units, N = 4) Comp at 25 uM” value is 348 relative luminescence units and the “THP1 cells (relative luminescence units, N = 4) Comp at 100 uM” value was 11361 relative luminescence units.

Turning to `CNC(=O)c1c(NC(=O)c2ccc(S(=O)(=O)N3CCCCC3)cc2)sc(C)c1C` [Compound 80.14], in the test with human adult PBMCs, the “Adult PBMCs (median ng/ml) IL-6 (N = 7)” value stood at 0.008 ng/mL and the “Adult PBMCs (median ng/ml) TNFa (N = 13)” value is 0.008 ng/mL. Also, in the test with THP1-NF-κB cells, the “THP1 cells (relative luminescence units, N = 4) Comp at 25 uM” value is given as 517 relative luminescence units and the “THP1 cells (relative luminescence units, N = 4) Comp at 100 uM” value is given as 1475 relative luminescence units.

With `CNc1ccc([N+](=O)[O-])cc1-n1cnc(-c2ccc([N+](=O)[O-])cc2)c1` [TM-A, reference compound], in the test on human adult PBMCs, the “Adult PBMCs (median ng/ml) IL-6 (N = 7)” value turned out to be 2.154 ng/mL and the “Adult PBMCs (median ng/ml) TNFa (N = 13)” value is 0.092 ng/mL. For the same compound, in the test with THP1-NF-κB cells, the “THP1 cells (relative luminescence units, N = 4) Comp at 25 uM” value is 8777 relative luminescence units and the “THP1 cells (relative luminescence units, N = 4) Comp at 100 uM” value was 13092 relative luminescence units.

For `COC(=O)c1c(NC(=O)Nc2ccccc2)sc2c1CCCC2` [TM-B, reference compound], in the test on human adult PBMCs, the “Adult PBMCs (median ng/ml) IL-6 (N = 7)” value stood at 0.057 ng/mL and the “Adult PBMCs (median ng/ml) TNFa (N = 13)” value is 0.008 ng/mL. Further, in the test on THP1-NF-κB cells, the “THP1 cells (relative luminescence units, N = 4) Comp at 25 uM” value is recorded as 1204 relative luminescence units and the “THP1 cells (relative luminescence units, N = 4) Comp at 100 uM” value is listed as 681 relative luminescence units.

For the compound `CCOC(=O)c1c(NC(=S)Nc2ccc(OC)cc2)sc2c1CCCC2` [TM-C, reference compound], in the test with human adult PBMCs, the “Adult PBMCs (median ng/ml) IL-6 (N = 7)” value was determined as 0.5145 ng/mL and the “Adult PBMCs (median ng/ml) TNFa (N = 13)” value came to 0.01575 ng/mL. Besides, in the test with THP1-NF-κB cells, the “THP1 cells (relative luminescence units, N = 4) Comp at 25 uM” value is 3440 relative luminescence units and the “THP1 cells (relative luminescence units, N = 4) Comp at 100 uM” value is listed as 4031 relative luminescence units.

In the case of `Cc1ccc(N(CC(=O)NCc2ccc(Cl)cc2)S(C)(=O)=O)cc1` [TM-E, reference compound], in the test on human adult PBMCs, the “Adult PBMCs (median ng/ml) IL-6 (N = 7)” value was determined as 0.008 ng/mL and the “Adult PBMCs (median ng/ml) TNFa (N = 13)” value is 0.008 ng/mL. Also, in the test on THP1-NF-κB cells, the “THP1 cells (relative luminescence units, N = 4) Comp at 25 uM” value is listed as 320 relative luminescence units and the “THP1 cells (relative luminescence units, N = 4) Comp at 100 uM” value is on record as 428.5 relative luminescence units.

`COc1ccc(CNC(=O)CN(c2ccc(Br)cc2)S(=O)(=O)c2ccccc2)cc1` [TM-F, reference compound]: in the test on human adult PBMCs, the “Adult PBMCs (median ng/ml) IL-6 (N = 7)” value is 0.008 ng/mL and the “Adult PBMCs (median ng/ml) TNFa (N = 13)” value worked out at 0.008 ng/mL. In the test on THP1-NF-κB cells, the “THP1 cells (relative luminescence units, N = 4) Comp at 25 uM” value was 348.5 relative luminescence units and the “THP1 cells (relative luminescence units, N = 4) Comp at 100 uM” value is reported as 2012 relative luminescence units.
